Assay results: the supplement of paper PMC10307832

Key:
Experiment in all cases: relative viability (nuclei count vs DMSO), 5 days (fraction); higher = more cells survive
[1] = compound: COc1cccc2c1C(=O)c1c(O)c3c(c(O)c1C2=O)C[C@@](O)(C(=O)CO)C[C@@H]3O[C@H]1C[C@H](N)[C@H](O)[C@H](C)O1 [Doxorubicin] + CC(=O)c1c(C)c2cnc(Nc3ccc(N4CCNCC4)cn3)nc2n(C2CCCC2)c1=O [Palbociclib] (partner 0.5 µM)
Method in brief: (§1)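 The day after seeding in 1536-well plates, lung cancer cell lines were treated by pin tool with a single drug, or with a fixed anchor-drug dose together with five library-drug doses (not always all listed) in √10 steps. After 5 days, a combined fix-and-stain solution (final 0.05% Triton X-100, 1% formaldehyde, 1 ug/ml Hoechst) was added. Nuclei counted on 4× images gave relative viability as treated counts over vehicle counts, reported as the median of duplicate plates.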

Doxorubicin + Pictilisib = compound: COc1cccc2c1C(=O)c1c(O)c3c(c(O)c1C2=O)C[C@@](O)(C(=O)CO)C[C@@H]3O[C@H]1C[C@H](N)[C@H](O)[C@H](C)O1 [Doxorubicin] + CS(=O)(=O)N1CCN(Cc2cc3nc(-c4cccc5[nH]ncc45)nc(N4CCOCC4)c3s2)CC1 [Pictilisib] (partner 1 µM)
Method in brief: as §1

BAY61-3606 + Palbociclib = compound: COC1=C(C=C(C=C1)C2=CC3=NC=CN3C(=N2)NC4=C(C=CC=N4)C(=O)N)OC [BAY61-3606] + CC(=O)c1c(C)c2cnc(Nc3ccc(N4CCNCC4)cn3)nc2n(C2CCCC2)c1=O [Palbociclib] (partner 0.5 µM)
Method in brief: as §1

Doxorubicin + Olaparib = compound: COc1cccc2c1C(=O)c1c(O)c3c(c(O)c1C2=O)C[C@@](O)(C(=O)CO)C[C@@H]3O[C@H]1C[C@H](N)[C@H](O)[C@H](C)O1 [Doxorubicin] + O=C(c1cc(Cc2n[nH]c(=O)c3ccccc23)ccc1F)N1CCN(C(=O)C2CC2)CC1 [Olaparib] (partner 8 µM)
Method in brief: as §1

| Cell Line | relative viability ([1]; first compound 0.001 µM) | relative viability ([1]; first compound 0.003162 µM) | relative viability ([1]; first compound 0.01 µM) | relative viability ([1]; first compound 0.03162 µM) | relative viability ([1]; first compound 0.1 µM) | relative viability (Doxorubicin + Pictilisib; first compound 0.001 µM) | relative viability (Doxorubicin + Pictilisib; first compound 0.003162 µM) | relative viability (Doxorubicin + Pictilisib; first compound 0.01 µM) | relative viability (Doxorubicin + Pictilisib; first compound 0.03162 µM) | relative viability (Doxorubicin + Pictilisib; first compound 0.1 µM) | relative viability (BAY61-3606 + Palbociclib; first compound 0.02 µM) | relative viability (BAY61-3606 + Palbociclib; first compound 0.06325 µM) | relative viability (BAY61-3606 + Palbociclib; first compound 0.2 µM) | relative viability (BAY61-3606 + Palbociclib; first compound 0.6325 µM) | relative viability (BAY61-3606 + Palbociclib; first compound 2 µM) | relative viability (Doxorubicin + Olaparib; first compound 0.001 µM) | relative viability (Doxorubicin + Olaparib; first compound 0.003162 µM) | relative viability (Doxorubicin + Olaparib; first compound 0.01 µM) | relative viability (Doxorubicin + Olaparib; first compound 0.03162 µM) | relative viability (Doxorubicin + Olaparib; first compound 0.1 µM) |
| --- | --- | --- | --- | --- | --- | --- | --- | --- | --- | --- | --- | --- | --- | --- | --- | --- | --- | --- | --- | --- |
| 201T | 0.351 | 0.321 | 0.345 | 0.349 | 0.354 | 0.666 | 0.648 | 0.658 | 0.719 | 0.68 | 0.346 | 0.349 | 0.341 | 0.397 | 0.366 | 0.849 | 0.825 | 0.837 | 0.856 | 0.831 |
| A549 | – | – | – | – | – | 0.49 | 0.355 | 0.201 | 0.0558 | 0.0454 | – | – | – | – | – | – | 0.437 | 0.375 | 0.275 | 0.264 |
| A-427 | 0.518 | 0.526 | 0.517 | 0.449 | 0.363 | 0.664 | 0.818 | 0.723 | 0.636 | 0.791 | 0.484 | 0.521 | 0.544 | 0.524 | 0.479 | 0.764 | 0.672 | 0.718 | 0.373 | 0.285 |
| ABC-1 | 0.651 | 0.712 | 0.543 | 0.471 | 0.368 | 0.849 | 0.642 | 0.566 | 0.317 | 0.356 | 0.39 | 0.576 | 0.705 | 0.796 | 0.716 | 0.946 | 0.761 | 0.723 | 0.525 | 0.306 |
| BEN | 0.454 | 0.458 | 0.46 | 0.441 | 0.465 | 0.7 | 0.509 | 0.546 | 0.472 | 0.493 | 0.456 | 0.438 | 0.477 | 0.442 | 0.509 | 1.07 | 1.09 | 0.897 | 0.938 | 1.13 |
| CAL-12T | 0.41 | 0.527 | 0.486 | 0.279 | 0.174 | 0.508 | 0.559 | 0.402 | 0.343 | 0.25 | 0.634 | 0.504 | 0.615 | 0.287 | 0.246 | 0.7 | 0.668 | 0.559 | 0.212 | 0.191 |
| COR-L23 | 0.327 | 0.274 | 0.236 | 0.181 | 0.106 | 0.928 | 1.04 | 0.651 | 0.199 | 0.121 | 0.338 | 0.252 | 0.377 | 0.347 | 0.215 | 0.361 | 0.38 | 0.29 | 0.147 | 0.131 |
| COR-L 105 | 0.436 | 0.387 | 0.367 | 0.37 | 0.327 | 0.463 | 0.444 | 0.355 | 0.283 | 0.277 | 0.443 | 0.437 | 0.404 | 0.422 | 0.411 | 0.748 | 0.698 | 0.668 | 0.497 | 0.468 |
| Calu-6 | – | – | – | – | – | 0.919 | 0.799 | 0.516 | 0.263 | 0.172 | – | – | – | – | – | 0.554 | 0.536 | 0.457 | 0.298 | 0.197 |
| ChaGo-K-1 | 0.962 | 0.912 | 0.911 | 0.939 | 0.974 | 0.971 | 0.506 | 0.621 | 0.369 | 0.238 | 0.934 | 0.846 | 0.89 | 0.916 | 0.865 | 0.437 | 0.408 | 0.352 | 0.486 | 0.442 |
| EBC-1 | – | – | – | – | – | 0.388 | 0.405 | 0.295 | 0.195 | 0.11 | – | – | – | – | – | 0.682 | 0.735 | 0.73 | 0.54 | 0.284 |
| EKVX | 0.794 | 0.312 | 0.342 | 0.31 | 0.374 | 0.453 | 0.444 | 0.399 | 0.434 | 0.429 | 0.405 | 0.45 | 0.385 | 0.496 | 0.45 | 0.862 | 0.882 | 0.767 | 0.849 | 0.734 |
| EMC-BAC-2 | 0.524 | 0.465 | 0.442 | 0.383 | 0.403 | 0.685 | 0.528 | 0.538 | 0.477 | 0.338 | 0.516 | 0.515 | 0.513 | 0.587 | 0.547 | 0.487 | 0.367 | 0.355 | 0.317 | 0.302 |
| EPLC-272H | 0.279 | 0.28 | 0.301 | 0.328 | 0.29 | 0.308 | 0.288 | 0.354 | 0.33 | 0.336 | 0.322 | 0.338 | 0.373 | 0.352 | 0.318 | 0.767 | 1.01 | 0.832 | 0.453 | 0.261 |
| H3255 | 0.306 | 0.315 | 0.306 | 0.348 | 0.263 | 0.481 | 0.482 | 0.415 | 0.452 | 0.48 | 0.3 | 0.307 | 0.301 | 0.334 | 0.307 | 0.541 | 0.553 | 0.541 | 0.48 | 0.424 |
| HARA | 0.234 | 0.256 | 0.259 | 0.236 | 0.263 | 0.444 | 0.439 | 0.434 | 0.357 | 0.294 | 0.262 | 0.23 | 0.268 | 0.243 | 0.306 | 1.05 | 0.8 | 0.722 | 0.718 | 0.759 |
| HCC-15 | 0.743 | 0.733 | 0.522 | 0.681 | 0.488 | 0.663 | 0.759 | 0.614 | 0.467 | 0.478 | 0.803 | 0.673 | 0.708 | 0.768 | 0.601 | 0.731 | 0.657 | 0.692 | 0.522 | 0.491 |
